# How the values were obtained:
# [1] = tested on: patients with asthma; assay: Trials 1-3: treatment of asthma patients with enoximone; format: in vivo, human
# Description: A patient was to be operated in connection with a mammary carcinoma. They had known difficult-to-treat asthma and before the operation they received 30 mg prednisone per day as extra medication in addition to their beta-2 agonists and parasympatholytics treatment, but their breathing remained considerably obstructed. Ten minutes before the start of the anaesthesia they were given 25 mg enoximone intravenously. […] Ultimately, after a single administration of enoximone, they stayed symptom-free for two months. Based on the above experience, a second patient was treated. According to their lung specialist, they suffered from untreatable asthma and had been completely bed-ridden for a long time, among other reasons due to high doses of the traditional medication (next to some other drugs they received 50 mg prednisone per day). Inhalation therapy worked for a few minutes only due to the severe bronchoconstriction, the drying of the airways and the consequential sticky obstructive mucus. The patient received 20 mg enoximone orally in two doses of 10 mg at a 15 minutes interval. […] They remained symptom-free for 7 days. During the first day after the first administration, the patient coughed a lot, which loosened the sticky mucus. After 7 days, they received another 10 mg dose of enoximone orally, after which they again remained symptom-free for 7 days. They were ultimately able to drastically reduce their prednisone use to 5 mg per day (complete phasing out was not possible in connection with their Mixed Connected Tissue Disease). They were able to build up their condition relatively quickly with a maintenance dose of 10 mg of enoximone once every 4 days. After 3 months, they were able to perform their normal household activities again and go back to work. After another month, they were even able to do some sport with caution. Following trials 1 and 2, several patients with light to severe asthma symptoms, who up to that time had been treated exclusively with the traditional therapy with little or no results, were also treated with enoximone. […] Their individual dosage depended on the severity of the disorder. The dosage ranged from 0.1 to 0.3 mg/kg body weight, mostly in a maintenance dosage of twice a week, based on the time of recurrence of the symptoms.
# [2] = tested on: established HDM allergic airway inflammation; assay: Established HDM allergy model, treatment strategy 2; format: in vivo, C57bl/6 mice; conditions: 25 μg enoximone admixed with 5 μg HDM
# Description: To induce airway inflammation, mice were anaesthetized with isofluorane and treated intratracheally (i.t.) with 1-10 μg house dust mite (HDM; Greer Laboratories) allergen extract in 80 μL phosphate buffered saline (PBS) on day 0 or using PBS only. Ten days later, anesthetized mice were challenged with 1-10 μg HDM in 50 μL PBS intranasally (i.n.) for 5 consecutive days. Mice were sacrificed 24 hr after last challenge and broncho alveolar lavage was performed by flushing the lungs 3 times with 1 ml PBS containing Ethylenediaminetetraacetic acid (EDTA, Sigma-Aldrich).
# C57bl/6 mice were sensitized with 10 μg HDM on day 0 and challenged with 5 μg HDM for 5 days on day 10-14. Then mice were treated with 5 μg HDM admixed with 25 μg enoximone or diluent for 5 days on days 15-19. 24 hr after last challenge measurements were performed.
# Next, we attempted to determine whether enoximone is potent enough to suppress allergic inflammation when asthma is already fully established. Animals were challenged with an additional session of 5 challenges with HDM mimicking the situation in asthma patients. Asthma mice and PBS controls were then challenged again on five successive days by instilling a droplet of 50 μl PBS (PBS PBS dil), or HDM (5 μg) in 50 μl PBS (HDM HDM dil) or HDM (5 μg) in 50 μl PBS admixed with enoximone (25 μg) (HDM HDM enox)(FIG. 7A).
# (A) Experimental HDM asthma design showing intratracheal sensitization (s) of […] or PBS as control and intra nasal challenge (c) with 5 μg HDM followed by challenge and treatment (ct). (B) Quantification of flow cytometric analyses of eosinophils in BAL of PBS treated mice (black bars) and enoximone treated mice (light grey bars). Results are expressed as means±SEM. (C) Quantification of flow cytometric analyses of ILC2s, (D) CD3 and (E) macrophages in BAL. Results are expressed as means±SEM. n=4-8 animals per group. Statistical evaluations were performed only between different treatments of groups. (*p<0.05 or **p<0.01).
# [3] = tested on: Human PBMCs stimulated with tetanus toxoid (CD4 T-cells); format: cell-based
# [4] = tested on: Human basophils stimulated with anti IgE; assay: Basophil degranulation assay; format: cell-based; conditions: anti IgE stimulation
# Description: PBMCs including basophils were treated with diluent or several doses of enoximone at 37° C. for half an hour. Next the cells were washed and incubated with anti IgE antibodies 5 µg/ml for 20 minutes at 37° C. for 20 minutes washed again at 4° C. and consequently stained for flowcytometric with CD123-BV650, CD203c-PE, CD107a-FITC, HLA-DR-PerCPCy5.5 and FcεRI-APC at 4° C. for 30 minutes. Cells were acquire with a LSRII and analyzed with Flowjo X. Basophils were identified as FcεRI+, CD123+ and HLA-DR− cells. Degranulated and/or activated basophils stained positive for CD203c and CD107a. 100% degranulated basophils were set as the % of degranulated basophils treated with diluent and stimulated with 5 µg/ml anti IgE. Proportion of inhibition was calculated as % of degranulated basophils divided by the maximal % of diluent treated degranulated basophils.
# FIG. 4 Human PBMCs including basophils were treated with diluent or several doses of enoximone and cells were activated by incubation with anti IgE antibodies. Data plotted show the mean proportion of inhibition was calculated as % degranulated basophils (CD123^+FceRI^+HLA-DR^− CD107a^+CD203c^+ cells) pretreated with enoximone divided by % of diluent treated degranulated basophils (n=3).
# [5] = metabolised to a less active sulfoxide, excreted via the kidneys; cited from earlier work
# [6] = tested on: HDM driven allergic airway inflammation; assay: House dust mite (HDM) allergic airway inflammation model, treatment strategy 1 (allergy induction); format: in vivo, C57bl/6 mice; conditions: orally (2.5 and 0.25 μg), treatment during challenge, FIG. 5B
structure (smiles),measurement,setting,value
"CSc1ccc(C(=O)c2[nH]c(=O)[nH]c2C)cc1 [enoximone, 1,3-dihydro-4-methyl-5-[4-(methylthio)benzoyl]-2H-imidazol-2-on]",symptom-free period,[1]; Trial 1: after a single administration of 25 mg intravenously,two months
same,time to disappearance of asthma symptoms,"[1]; Trial 1: person, difficult-to-treat asthma, 25 mg intravenously",within a few minutes
same,symptom-free period,[1]; Trial 2: after 20 mg orally in two doses of 10 mg at a 15 minutes interval,7 days
same,symptom-free period,[1]; Trial 2: after another 10 mg dose orally after 7 days,7 days
same,time until able to perform normal household activities and go back to work,[1]; Trial 2: maintenance dose of 10 mg once every 4 days,3 months
same,prednisone use after reduction,[1]; Trial 2: previously 50 mg prednisone per day,5 mg per day
same,time to disappearance of asthma symptoms,"[1]; Trial 2: untreatable asthma, after first oral dose of 10 mg",within two minutes
same,progress of patients with light to severe asthma symptoms,"[1]; Trial 3: 0.1 to 0.3 mg/kg body weight, mostly twice a week",remarkable and fast progress
same,allergic and immune-related symptoms,[1]; Trial 3: five patients,substantially milder or even disappeared altogether
same,time to improved breathing,[1]; administered orally in cases of asthma,within ten minutes
same,time to reaction,[1]; all the patients treated,within a few minutes
same,symptom-free period,"[1]; all the patients treated, after only one dose",remained days or weeks symptom-free
same,duration of improvement of the dyspnoea symptoms,[1]; as maintenance medication,from a few days to several weeks or several months
same,duration of the effects of the compound,[1]; compared with the half life of 4 hours,lasting well beyond a month
same,side effects,"[1]; disappeared after one day, lowering the dose offered a solution",two patients reported headaches on the day of intake
same,time to improved breathing,[1]; intravenous administration in cases of asthma,within as little as one minute
same,numbers of ILC2s in BAL,"[2]; days 15-19, FIG. 7C",significant reduction
same,numbers of T-cells in BAL,"[2]; days 15-19, FIG. 7D",significant reduction
same,numbers of macrophages in BAL,"[2]; days 15-19, FIG. 7E",significant reduction
same,eosinophil numbers in BAL,"[2]; days 15-19, started after the first 5 HDM challenges, FIG. 7B",strong significant reductions
same,proliferation of CD4 positive T-cells (proportion of divided CD4 T-cells),[3],significantly reduced
same,inhibition at 20 µM,"[4]; Homo sapiens, 20 μM enoximone, FIG. 4, read-out: inhibition of basophil activation/degranulation (CD107a and CD203c positivity)",> 50%
same,inhibition at 1000 µM,"[4]; Homo sapiens, 1000 μM enoximone, FIG. 4, read-out: inhibition of basophil activation/degranulation (CD107a and CD203c positivity)",> 90%
same,basophil activation (CD107a and CD203c positivity),[4]; enoximone 20-1000 μM,reduced basophil activation
same,half life,[5],approximately 4 hours
same,"eosinophil numbers in BAL, HDM/PBS treated mice compared to enoximone treated mice",[6],significantly higher
